According to US8779002B2, “Methods for treating a variety of diseases and conditions, and compounds useful therefor” (Salk Institute for Biological Studies, priority 2007, dated 2014):
Like-named read-outs stand apart in the source and are kept apart here.

Experiments:
Retinal Ganglion Cells = experiment: In vitro ischemia, retinal ganglion cells; format: cell-based; design: key: + = positive result or enzyme activation
Cortical Nerve = experiment: In vitro ischemia, cortical nerve; format: cell-based; design: key: + = positive result or enzyme activation
CREB = CREB phosphorylation; format: cell-based, mouse; design: key: + = positive result or enzyme activation
Description: CREB activation has been linked to cell survival and accordingly, is considered to be a validated therapeutic target (Vaishnov, et al, Biochem. Biophys. Res. Commun. 307:855-860 (2003)). Similar to the concept of programmed cell death which involves transcription factors pivotal in switching on the nerve cell death program is the transcriptional control of programmed cell life. For example, recent studies of the activation of the CREB transcription factor in stroke models have shown that CREB is phosphorylated (and presumably activated) in neurons that survive this insult.
CREB phosphorylation in response to oxidative stress is evaluated in the presence of invention compounds. Glutamate is added to HT22 cells in the presence or absence of Cmpd CNB-001 (at 1 μM). The ratio of phosphorylated CREB to total CREB is then measured as a function of time. Furthermore, all of the HT22 cells die in the absence of Cmpd CNB-001, and over 90% live in the presence of Cmpd CNB-001.

HT22 cells = experiment: HT22 oxidative glutamate toxicity (oxytosis) assay; format: cell-based, mouse; details: for EC50: Mus musculus, HT-22
Experimental: FIG. 1D illustrates the results of an oxidative stress assay. HT22 cells were treated with 5 mM glutamate and different concentrations of two versions of curcumin derivatives. Cell viability was measured 24 hr later by the MTT assay (J. B. Davis and P. Maher, Protein kinase C activation inhibits glutamate-induced cytotoxicity in a neuronal cell line. Brain Res. 652 (1994) 169-173). Legend for FIG. 1A, FIG. 1B and FIG. 1D: x-x, Cmpd CNB-001, o-o, Cmpd J147.
Similar toxicity assays as described above are also conducted with invention compounds using HT22 cells in an assay for oxidative stress. After exposure with 1 mM, 2 mM, 2.5 mM, or 5 mM glutamate, cell viability is determined with the MTT assay.
HT22 hippocampal neurons are treated with 5 mM glutamate and increasing concentrations of invention compounds. Cell viability is measured 24 hr later by the MTT assay (Davis and Maher, Brain Res. 652:169-173 (1994)).

PC12 cells = experiment: Glucose starvation assay; format: cell-based; design: key: + = positive result or enzyme activation; details: Cell Culture
Experimental: FIG. 1C illustrates the results of a glucose starvation assay. PC12 cells were starved for glucose plus or minus 20 nM J147; cell viability was then determined 48 hr later using the MTT assay (T. Soucek, R. Cumming, R. Dargusch, P. Maher and D. Schubert, Neuron 39 (2003) 43-56).

Wistar rats = experiment: Novel object recognition task in rats; format: in vivo, rat; details: for Recognition index, Mean: Wistar rats, n=8
Experimental: FIG. 6 illustrates the effect of galantamine, compounds CNB-001, J147, SK186 and SKI 87 on object recognition task in Wistar rats. The data represent mean±SEM. *p<0.05 compared with the vehicle control.
This model is based on the greater spontaneous exploration of a novel object, compared with a familiar object, shown by rodents (see Ennaceur and Delacour in Behav. Brain Res. 31:47 (1988)). Male Wister rats are assessed for cognitive ability in a test apparatus comprising an open-field arena placed in a sound-attenuated room under dimmed lighting. Images of the open-field are captured by digital camera, and viewed on a monitor in an adjoining room. Each rat is subjected to the procedure separately and care is taken to remove any olfactory/taste cues by cleaning the arena and test objects with alcohol between trials and rats.
Adult male Wistar rats were employed in all rat studies. Animals were placed in the experimental rooms at postnatal day 80 and assigned unique identification numbers (tail marked). Pairs were housed in polycarbonate cages with filter tops and acclimated for 3 days prior to commencing any studies. Animals were maintained in a 12 hour light/dark cycle with room temperature maintained at 22±2° C. with a relative humidity maintained approximately 50%. Food and water were provided ad libitum.
All animals were examined, handled, and weighed for a further two days prior to initiation of the study to assure adequate health and suitability and to minimize non-specific stress associated with manipulation. Each animal was randomly assigned across the treatment groups and balanced by cage numbers. The novel object recognition experiment was performed during the animal's light cycle phase. Drug treatments were balanced across days and animals were only used once
The following compounds were used for this study—Reference compound (Galantamine; 3 mg/kg) was dissolved in 0.9% saline and administered i.p. 1 hour pre-test at a dose volume of 1 ml/kg, and all test compounds were handled in solution, and were kept at −80° C. until use. All compounds were administered orally 60 min prior to training at a volume of 1 ml/kg body weight.
Following a 5-minute habituation period, each rat was placed into the test arena in the presence of two identical objects (plastic shapes). Each rat was placed facing the same direction at the same position in the arena, and the time spent actively exploring the objects during a 5-minute test period (T1) was recorded. The rat was returned to its home cage between tests. After 24 hours, each rat was again placed in the test arena for 5 minutes (T2) in the presence of one of the familiar objects and a novel object, and the time spent exploring both objects was again recorded. The presentation order and position of the objects (left/right) was randomized between rats to prevent bias from order or place preference. A preference index for each object, the ratio of the time spent exploring either the familiar object or the novel object over the total time spent exploring both objects (during retention session T2) was used to measure cognitive function.
Data were analyzed by a one-way analysis of variance (ANOVA) followed by post-hoc comparisons with Fisher Tests when appropriate. An effect was considered significant if p<0.05. Data in the following tables are presented as the mean and standard error to the mean.

JNK-1 = JNK-1 (Homo sapiens, UniProt P45983); experiment: Protein kinase panel: JNK-1; format: biochemical; details: panel of 14 protein kinases
Chain of JNK-1 (P45983 whole entry, species assumed): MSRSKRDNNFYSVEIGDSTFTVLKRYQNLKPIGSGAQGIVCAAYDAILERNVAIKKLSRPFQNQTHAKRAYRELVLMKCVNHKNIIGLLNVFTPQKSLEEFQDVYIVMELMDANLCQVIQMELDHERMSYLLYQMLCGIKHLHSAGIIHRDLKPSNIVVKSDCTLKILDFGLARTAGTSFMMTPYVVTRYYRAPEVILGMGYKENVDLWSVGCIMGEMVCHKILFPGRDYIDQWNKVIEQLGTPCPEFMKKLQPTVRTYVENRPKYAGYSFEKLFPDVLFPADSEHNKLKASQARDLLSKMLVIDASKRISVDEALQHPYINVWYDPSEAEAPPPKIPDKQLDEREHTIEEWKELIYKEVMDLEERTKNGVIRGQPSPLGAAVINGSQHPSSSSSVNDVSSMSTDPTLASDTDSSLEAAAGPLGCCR
Description: (§1) A panel of 14 protein kinases was screened against Cmpd CNB-001. […] In HT22 cells and primary cortical neurons, Cmpd CNB-001 blocked p38 and JNK phosphorylation caused by glutamate by about 30%, and inhibited cell death. The phosphorylation of the other tested kinases was not altered.

JNK-3 = JNK-3 (Homo sapiens, UniProt P53779); experiment: Protein kinase panel: JNK-3; format: biochemical; details: panel of 14 protein kinases
Chain of JNK-3 (P53779 whole entry, species assumed): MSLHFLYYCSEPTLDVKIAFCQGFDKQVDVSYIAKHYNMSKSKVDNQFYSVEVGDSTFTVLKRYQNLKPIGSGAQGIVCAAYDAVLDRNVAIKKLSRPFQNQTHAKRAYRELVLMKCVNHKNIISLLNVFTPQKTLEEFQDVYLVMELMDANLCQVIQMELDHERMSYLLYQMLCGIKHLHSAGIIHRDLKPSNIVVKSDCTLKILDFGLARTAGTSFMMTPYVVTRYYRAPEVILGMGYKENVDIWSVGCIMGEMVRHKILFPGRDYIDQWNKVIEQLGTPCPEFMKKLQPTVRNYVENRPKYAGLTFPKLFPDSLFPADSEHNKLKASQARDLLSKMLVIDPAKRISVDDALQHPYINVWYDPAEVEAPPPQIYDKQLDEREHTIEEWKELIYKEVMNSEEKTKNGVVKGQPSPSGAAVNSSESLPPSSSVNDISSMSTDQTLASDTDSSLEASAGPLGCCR
Description: as §1

[1] = Toxicology: animal weight or overall health; format: in vivo
[2] = Cell Culture (Table 2), read-out: Oxidative Glutamate Toxicity
[3] = 5 mg/kg orally 60 min prior to training
[4] = 10 mg/kg orally 60 min prior to training
[5] = 25 mg/kg orally 60 min prior to training

COc1cc(/C=C/c2cc(/C=C/c3ccc(O)c(OC)c3)n(-c3ccccc3)n2)ccc1O [CNB-001]
In Vitro Ischemia, Retinal Ganglion Cells (Retinal Ganglion Cells): +
In Vitro Ischemia, Cortical Nerve (Cortical Nerve): +
CREB (CREB): +
EC50 (HT22 cells; [2]): 500 nM
HT22 cells that live (HT22 cells; glutamate, in the presence of Cmpd CNB-001 at 1 μM): over 90%
Glucose Starvation (PC12 cells): +
Recognition index, Mean (Wistar rats; [3]): 63.663
Recognition index, Mean (Wistar rats; [4]): 77.964
Effect on recognition index (Wistar rats; 10 mg/kg, versus vehicle, p<0.05): significantly increased
Recognition index, Mean (Wistar rats; [5]): 45.226
Fisher's PLSD for Recognition index, Mean Diff. (*vehicle, treatment) (Wistar rats; vehicle versus 5 mg/kg oral): −11.741
Fisher's PLSD for Recognition index, Mean Diff. (*vehicle, treatment) (Wistar rats; vehicle versus 10 mg/kg oral): −26.042
Fisher's PLSD for Recognition index, Mean Diff. (*vehicle, treatment) (Wistar rats; vehicle versus 25 mg/kg oral): 6.697
Inhibition of kinase (JNK-1): None of the other enzymes that were assayed, including JNK-1 or JNK-2, were affected
Inhibition of kinase (JNK-3): partially inhibited
Toxicology-no apparent effect on animal weight or overall health ([1]; several mo. (mice)): 500 ppm food

COc1cccc(/C=N/N(C(=O)C(F)(F)F)c2ccc(C)cc2C)c1 [Compound J147]
In Vitro Ischemia, Retinal Ganglion Cells (Retinal Ganglion Cells): +
In Vitro Ischemia, Cortical Nerve (Cortical Nerve): +
CREB (CREB): +
EC50 (HT22 cells; [2]): 5 nM
EC50 (HT22 cells; HT22 cells, following 5 mM glutamate exposure, MTT, read-out: EC50): ~5 nM
EC50 (HT22 cells; Oxidative glutamate toxicity (oxytosis), read-out: HT-22 EC50): 6 nM
Glucose Starvation (PC12 cells): +
Recognition index, Mean (Wistar rats; [3]): 63.053
Recognition index, Mean (Wistar rats; [4]): 54.213
Recognition index, Mean (Wistar rats; [5]): 51.372
Fisher's PLSD for Recognition index, Mean Diff. (*vehicle, treatment) (Wistar rats; vehicle versus 5 mg/kg oral): −11.130
Fisher's PLSD for Recognition index, Mean Diff. (*vehicle, treatment) (Wistar rats; vehicle versus 10 mg/kg oral): −2.291
Fisher's PLSD for Recognition index, Mean Diff. (*vehicle, treatment) (Wistar rats; vehicle versus 25 mg/kg oral): .550
Toxicology-no apparent effect on animal weight or overall health ([1]; gavage 10 d (mice)): 300 mg/kg
